Assay results as given in PMC4263767, “IL-28B is a Key Regulator of B- and T-Cell Vaccine Responses against Influenza” (PLoS Pathogens, 2014).
“Also recorded” adds a separate entry of the source. Like-named read-outs stand apart in the source and are kept apart here.

Experiments:
[1] = tested on: PBMCs from healthy volunteers; assay: IL-28A, IL-28B and IL-29 mRNA expression in H1N1-stimulated PBMCs; format: cell-based, human; conditions: MMF various concentrations 2 h before 6 h H1N1; n = 25
Protocol: (A) PBMCs from healthy volunteers were stimulated for six-hours with H1N1. mRNA-expression of IL-28A, IL-28B and IL-29 were normalized to non-stimulated controls and HPRT expression. Major (rs8099917 TT, n = 28) compared to minor (rs8099917 non-TT, n = 21) allele genotype. MWU-test determined statistically significant differences between groups. Bars show median values with interquartile range. (B) PBMCs from healthy volunteers (n = 25) were pre-treated with mycophenolate mofetil for 2 h prior to stimulated for six-hours with H1N1. mRNA-expression of IL-28A, IL-28B and IL-29 and statistical analysis were performed using the Kruskal Wallis (KW) test.
IL-28B primers and probe were designed based on Homo sapiens IL-28B mRNA-sequence (NM_172139.2) using Primer3 Input (version 0.4.0) (http://frodo.wi.mit.edu/). The forward primer (IL-28BF1: […]) spans the exon/exon junction of exons 1 and 2 of IL-28B. The IL-28B-specific probe (IL-28B probe: […] ) is located in the second exon and the reverse primer (IL-28BR1: […]) is in the third exon of the IL-28B gene. […]
The specificity of the three sets of qRT PCR assays was tested against Invivogen expression plasmids containing complete IL-28A (puno1-hIL-28A), IL-28B (puno1-hIL-28B) and IL-29 (punoIL-29) sequences. The specificity of all qRT PCR assays has been previously assessed. […]

transplant recipients = conditions: MMF; ref [28], [48]; cited from earlier work
[2] = tested on: PBMCs from healthy volunteers; format: cell-based, human; conditions: peptides 2 h prior to 5-day H1N1 stimulation, compared to peptide controls
[3] = tested on: IL28RA (IL-28 receptor alpha subunit); assay: ELISA competition assay, binding of IL-28B to IL28RA; conditions: for inhibition of IFN-λ / IL-28B binding to IL28RA (in words): peptides 10 µM, or increasing 10 nM to 100 µM; for binding affinity to IL28RA (in words): discussion
Description: Recombinant IL28RA was coated on an ELISA plate and pre-treated with increasing concentrations of peptides. […] Anti-his secondary antibody was used to determine the relative amount of bound IFN-λ to the IL28RA. These dose-response curves allowed us to determine the effectiveness of binding inhibition of each peptide.
(C) Inhibitory activity of peptides against IL-28B to IL28RA. […] Bars indicate median values, whiskers inter-quartile ranges. The graph represents three independently repeated experiments. (D) Inhibitory activity of scrambled peptides against IL-28B to IL28RA. ELISA was used to measure the binding of a fixed concentration of IL-28B (100 ng/mL) to the IL28RA challenged by a fixed concentration of control peptides (10 µM; s, scramble). The median value representing three independently repeated experiments is shown. Whiskers indicate the interquartile range.

H1N1 stimulated PBMCs = format: cell-based, human; conditions: control peptides added twice during expansion phase
IL28RA = conditions: reference not given; cited from earlier work
Description: An important strength of our study is the use of a clinical cohort including immunosuppressed transplant recipients to confirm our findings in the clinical setting. We then sought to define additional observations to support our clinical findings making our study unique. One limitation of our study is the heterogeneity of the transplant cohort due to a variety of underlying conditions leading to organ failure. […] In addition, we have shown that mycophenolate mofetil (MMF) and the IL-28B major-allele ...

[4] = tested on: T-cells, monocytes and macrophages; conditions: ref [18]–[21]; cited from earlier work
Description: The IFN-λ family (Interleukin-28A, -28B, -29, and IFN-λ4) is a recently described class of IFNs with antiviral properties similar to IFN-α and -β [14]–[17]. IFN-λ is known to induce phosphorylation of STAT-1 and -2 via binding to its receptor, which is a heterodimer consisting of the IL-28 receptor alpha subunit (IL28RA) and IL-10 receptor beta subunit (IL10RB). […] Furthermore, IFN-λs induced the development of T-regu ... || IL-28B (IFN-λ3) belongs to the family of IFN-lambdas and shares antiviral properties similar to IFN-α via induction of interferon stimulated genes (ISGs) such as MX1 or OAS1 [41]. […] IL-12 is a key cytokine for the induction of Th1 cells and cytotoxic lymphocytes, [43]. SNPs in the IL-28B gene (minor-allele genotypes) have been associated with reduced IL-28B expression, [29]–[33], which could impact adaptive immune functions during vaccination. One limitation of our study is that we d ...

[5] = competition ELISA, IL-28B 100 ng/mL

Compound: COc1c(C)c2c(c(O)c1C/C=C(\C)CCC(=O)OCCN1CCOCC1)C(=O)OC2 [MMF, mycophenolate mofetil]
- IFN-λ (IL-28A, IL-28B, IL-29) mRNA expression profiles [1]: no difference in IFN-λ expression profiles; also recorded: not influenced
- effect on influenza vaccine responses (transplant recipients): significantly suppress influenza vaccine responses

Compound: ELASFKKARDALEESLKL [peptide 1]
- H1N1-induced IgG production (in words) ([2]; listed as Peptides 1): strong trend for higher H1N1-induced IgG secretion
- H1N1-induced IgG production (in words) ([2]; listed as peptides 1): ability to significantly increase in vitro H1N1-induced IgG production
- reduction of the binding of IL-28B to IL28RA ([3]; competition ELISA, IL-28B 100 ng/mL, peptide 10 µM (S5C/S5D Figure), median of three independent experiments): 71%
- inhibition of IFN-λ / IL-28B binding to IL28RA (in words) [3, 5]: potent specific dose dependent inhibitory blocking effect
- inhibition of IFN-λ / IL-28B binding to IL28RA (in words) ([3]; competition ELISA, IL-28B 100 ng/mL, listed as peptides 1): strong potential to inhibit binding of IFN-λs
- binding affinity to IL28RA (in words) [3]: high binding affinities to IL28RA

Compound: penetratin
- unspecific stimulatory effect on H1N1 stimulated IgG production (H1N1 stimulated PBMCs): No unspecific effect could be observed

Compound: ASVTFNLFRLLTRDLKY [peptide 6]
- H1N1-induced IgG production (in words) [2]: ability to significantly increase in vitro H1N1-induced IgG production
- inhibition of IFN-λ / IL-28B binding to IL28RA (in words) [3, 5]: strong potential to inhibit binding of IFN-λs
- binding affinity to IL28RA (in words) [3]: high binding affinities to IL28RA

Compound: IL-29: one of the IFN-λ family members
- binding affinity towards IL28RA compared to IL-28B (IL28RA): significantly greater binding affinity
- Th1 and Th2 cytokine producing T-cells [4]: increase Th1 and suppress Th2 cytokine producing T-cells
